In patent US11957766B2, “HNQO1-activatable fluorescent probe for imaging cancer cells in-vitro and in-vivo” (Texas Tech University System, priority 2019, dated 2024):

Experiments:
[1] = test system: brain tumor (DAOY, T98G, and U87MG) and normal (astrocytes) cells; experiment: Cytotoxicity of NQ-DCP, resazurin reduction assay; format: cell-based, human; details: 100 μM, 72 h incubation
Procedure: Visualization of Cancer Cells by Fluorescence Imaging of hNQO1. […] The cytotoxicity of NQ-DCP was initially evaluated in cultured brain tumor (DAOY, T98G, and U87MG) and normal (astrocytes) cells to assess its biocompatibility using the resazurin reduction assay. […] Cells were incubated with NQ-DCP (10 μM) for 60 min, washed with PBS and were imaged under a fluorescence microscope.

NQO1 = NQO1 (Homo sapiens, UniProt P15559); experiment: Fluorescent response of NIR-ASM towards NQO1; format: biochemical; parameters: purchased Sigma-Aldrich D1515
Procedure: Fluorescent response of NIR-ASM towards NQO1. To unequivocally establish that NIR-ASM is a highly specific sensor for NQO1, the inventors first investigated its spectral properties were systematically studied in simulated physiological conditions 0.1% BSA containing PBS, BSA used as a stabilizing agent, pH 7.4) at 37° C., and the results are given in FIGS. 9D and 9E. […] However, upon addition of NQO1, the absorption at 403 nm disappears and a prominent absorption at 465 nm emerges; Along with the bathochromic shift of UV/Vis absorption, a distinct color change from yellow to red was observed after 30 min of incubation with NQO1. […] However, the reaction of the probe with NQO1 produced a strong fluorescence emission band at 646 nm with a large Stokes shift ([…]) (FIG. 9F), which is highly advantageous for bioimaging analysis, because of non-overlapping excitation and emission wavelengths. Next, the fluorescence response of NIR-ASM to NQO1 at varying concentrations (0-2.5 μg/mL) was studied. […] Also, the fluorescence enhancement was directly proportional to the enzyme concentration in the range of 0.125-2.5 μg/mL (R^2=0.9919, FIG. 9G). The NQO1 detection limit (LOD) of NIR-ASM was calculated to be as low as 0.191 μg/mL, based on the standard deviation of the response (Sy) and the slope of the calibration curve (S) according to the formula: LOD=3.3(Sy/S).
Spectroscopic measurements. NIR-ASM was dissolved with DMSO to prepare a stock solution, which was then diluted with enzyme reaction buffer (PBS containing 2.5 μg/mL, 100 μM NADH and 0.1% BSA) to prepare different concentrations of the probe for UV/Vis and fluorescence measurement. Time-dependent fluorescence intensity changes for different concentrations of NIR-ASM in the presence of NQO1 (2.5 μg/mL) and 100 μM NADH were measured using Clear bottom 96 well black plate and microplate reader. Fluorescence (ex. 460 nm and em. 646 nm) was quantitated every minute for 90 min with 20 seconds of shaking in between intervals.

A549 tumor = experiment: In vivo real-time imaging of NQO1 in A549 xenografts with NIR-ASM; parameters: species or system nude mice
Procedure: In vivo real-time imaging of NQO1 in xenografts using NIR-ASM. In vivo real-time imaging offers a powerful tool for accurately diagnosing disease and suspicious lesions with valuable spatiotemporal precision. […] Tumor xenografts were established by implanting exponentially growing lung cancer cells (A549) subcutaneously into nude mice. When tumor growth reached the log phase, NIR-ASM (5 mg/kg in PEG:H2O:EtOH (6:3:1)) was given intravenously and subjected to whole-body fluorescence imaging using an In Vivo Imager (IVIS). […] No signal was apparent in other organs of the animal. To confirm the tumor-selective targeting ability of NIR-ASM, the host organs and tumor from the mice administered with NIR-ASM were harvested and their fluorescence was analyzed ex vivo using the same IVIS. […] Furthermore, the lysates from the tumor and various organs were electrophoresed and western blotted using the NQO1 antibody. NQO1 protein at detectable levels was seen only in the tumor lysate and not in other tissues, thus, reinforcing the specificity of in-vivo imaging (FIG. 14C).
In vivo bioimaging. […] All animals were monitored for activity, physical condition, body weight, and tumor growth. […] Fluorescence represented in log values of radiance is photons per second per square centimeter per steradian.

IMR90 and HUVECs = experiment: Flow cytometry of NIR-ASM in NQO1-negative normal cell lines; format: cell-based, human
Procedure: Detection of NQO1 in live cells. Inspired by the excellent biocompatibility, the inventors investigated its performance in both NQO1 expressing cancer cells (A549, H460) and NQO1 non-expressing normal cells (IMR90, HUVEC). All cells were incubated with NIR-ASM (10 μM) for 60 min, washed with PBS and were imaged under a confocal microscope after counterstaining the nuclei with Hoechst 33342 (FIG. 12A). […] The higher expression of NQO1 protein in A549 and H460 cells and its absence in normal cells, IMR90 and HUVEC as found with western blot analysis correlated with the probe reactivity in cells (FIG. 12B). […] Cell sorting using flow cytometry is a well-established technology in clinical diagnostics and biomedical research. To assess the applicability of the NIR-ASM to rapidly detect and quantify in both cancer and normal cells based on NQO1 expression, the probe was incubated with cell suspensions for 60 min, and about 1×10^4 cells were analyzed on a flow cytometer.
Flow cytometry analysis. The endogenous NQO1 activity of cancer cells and normal cells was determined by flow cytometry after NIR-ASM exposure. Cells were incubated with 10 μM of NIR-ASM for 60 min, harvested by trypsinization and washed with PBS. For inhibitor study, cells were pretreated with NQO1 inhibitor ES936 (100 nM) for 6 h before adding the NIR-ASM. About 1×10^4 cells were analyzed by flow cytometry (λex=488 nm).

NQO1, sequence (P15559 whole entry): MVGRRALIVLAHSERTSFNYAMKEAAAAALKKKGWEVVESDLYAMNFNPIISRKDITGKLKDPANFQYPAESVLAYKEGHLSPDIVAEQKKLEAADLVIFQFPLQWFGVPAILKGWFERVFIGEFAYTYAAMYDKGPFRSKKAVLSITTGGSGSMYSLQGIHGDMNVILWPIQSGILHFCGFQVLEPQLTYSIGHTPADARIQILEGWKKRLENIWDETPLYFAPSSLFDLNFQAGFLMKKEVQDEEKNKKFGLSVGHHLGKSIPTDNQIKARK

## CC1=C(C)C(=O)C(C(C)(C)CC(=O)Oc2ccc(/C=C/C3=CC(=C(C#N)C#N)CC(C)(C)C3)cc2)=C(C)C1=O [NQ-DCP]
[1]
  cytotoxicity: nontoxic

## CC1=C(C)C(=O)C(C(C)(C)CC(=O)Nc2ccc(/C=C/C3=CC(=C(C#N)C#N)CC(C)(C)C3)cc2)=C(C)C1=O [NIR-ASM, (E)-N-(4-(2-(3-(dicyanomethylene)-5,5-dimethylcyclohex-1-en-1-yl)vinyl)phenyl)-3-methyl-3-(2,4,5-trimethyl-3,6-dioxocyclohexa-1,4-dien-1-yl)butanamide]
NQO1; 100 μM NADH
  enzyme concentration range in which fluorescence enhancement was directly proportional: 0.125 to 2.5 µg/mL
NQO1; LOD=3.3(Sy/S)
  NQO1 detection limit (LOD): 0.191 µg/mL
NQO1; NQO1 2.5 μg/mL
  time to maximum emission at 646 nm: 30 min
NQO1; after reaction with NQO1
  Stokes shift: 186 nm
  fluorescence emission band: 646 nm
NQO1; before addition of NQO1, PBS 0.1% BSA pH 7.4, 37° C.
  absorption band: 403 nm
NQO1; upon addition of NQO1
  absorption: 465 nm
A549 tumor; 5 mg/kg intravenously
  time at which tumor fluorescence signal reached the plateau: 30 min
A549 tumor; organs harvested after NIR-ASM
  ex vivo fluorescence in tumor and organs: observed only in the tumor and not in any other major organs
IMR90 and HUVECs; 60 min, about 1×10^4 cells
  flow cytometry fluorescence signal, negative normal cells: minimal fluorescence
IMR90 and HUVECs; sustained low fluorescence in normal cells
  intracellular stability: intracellular stability of NIR-ASM without any non-specific activation
